Laboratory results as given in US20260297098A1, “HETEROCYCLIC COMPOUNDS AS PARP1 INHIBITORS” (Synnovation Therapeutics, Inc., priority 2023, published 2026).

target: T1, hydrogen peroxide-induced PARylation in HeLa cells (wide-type with PARP1 gene) (Homo sapiens, UniProt P09874); experiment: In-Cell Western measurement of PARylation in PARP1 WT (HeLa) cells; type: cell-based; settings: 60 min compound pre-treatment, 10 mM hydrogen peroxide for 15 min, read-out: HeLa_WT_IC50
T1 construct: H2O2-induced PARylation, In-Cell Western with anti-PAR antibody
From the text: Example A. In-Cell Western Measurement of PARylation in PARP1 WT and Knockout Cells
The purpose of this cell-based assay is to measure the potency and selectivity of synthesized PARP inhibitors in suppressing hydrogen peroxide-induced PARylation in cells with and without PARP1 expression. Several cell lines were used in this assay. HeLa cells (wide-type with PARP1 gene) were purchased from ATCC. The HAP1 cell line without the PARP1 gene (#HZGHC003943c006) was purchased from Horizon Discovery. Cells were cultured using complete medium containing 10% fetal bovine serum. One day before the assay, cells were seeded in 96-well plates at the density of 20,000 cells per well in 80 uL complete medium. Compounds were dissolved using DMSO and diluted to the working concentrations using complete medium. Cells were pre-treated with compounds for 60 min and then stimulated with 10 mM hydrogen peroxide for 15 min. After stimulation, cells were immediately fixed using ice-cold methanol for 20 min. After fixation, cells were washed using 1×PBST buffer for 3 times, 5 min each time, to eliminate residual methanol. Cells were blocked for 1 h at room temperature in blocking buffer (10% goat serum, 1% BSA, 0.1% Triton X-100 in PBST). Primary antibody was diluted in blocking buffer at 50 uL per well. Cells were incubated with the primary antibody (Adipogen, AG-20T-0001-M001, 1:300) at 4° C. for 18 h. The wells were then washed using 1×PBST for 3 times, 5 min each time. IRDye® 680RD Goat anti-Mouse IgG (H+L) secondary antibody was diluted at 1/1000 using the diluent buffer and added at 50 uL per well. Secondary antibody incubation was for 1 h at room temperature. Cells were then washed using 1×PBST for 3 times, 5 min each time. The signal was detected and analyzed using LI-COR Odyssey DLx Imaging system. Data were collected and further processed using GraphPad Prism for IC50 estimation.

T1 sequence (P09874 whole entry): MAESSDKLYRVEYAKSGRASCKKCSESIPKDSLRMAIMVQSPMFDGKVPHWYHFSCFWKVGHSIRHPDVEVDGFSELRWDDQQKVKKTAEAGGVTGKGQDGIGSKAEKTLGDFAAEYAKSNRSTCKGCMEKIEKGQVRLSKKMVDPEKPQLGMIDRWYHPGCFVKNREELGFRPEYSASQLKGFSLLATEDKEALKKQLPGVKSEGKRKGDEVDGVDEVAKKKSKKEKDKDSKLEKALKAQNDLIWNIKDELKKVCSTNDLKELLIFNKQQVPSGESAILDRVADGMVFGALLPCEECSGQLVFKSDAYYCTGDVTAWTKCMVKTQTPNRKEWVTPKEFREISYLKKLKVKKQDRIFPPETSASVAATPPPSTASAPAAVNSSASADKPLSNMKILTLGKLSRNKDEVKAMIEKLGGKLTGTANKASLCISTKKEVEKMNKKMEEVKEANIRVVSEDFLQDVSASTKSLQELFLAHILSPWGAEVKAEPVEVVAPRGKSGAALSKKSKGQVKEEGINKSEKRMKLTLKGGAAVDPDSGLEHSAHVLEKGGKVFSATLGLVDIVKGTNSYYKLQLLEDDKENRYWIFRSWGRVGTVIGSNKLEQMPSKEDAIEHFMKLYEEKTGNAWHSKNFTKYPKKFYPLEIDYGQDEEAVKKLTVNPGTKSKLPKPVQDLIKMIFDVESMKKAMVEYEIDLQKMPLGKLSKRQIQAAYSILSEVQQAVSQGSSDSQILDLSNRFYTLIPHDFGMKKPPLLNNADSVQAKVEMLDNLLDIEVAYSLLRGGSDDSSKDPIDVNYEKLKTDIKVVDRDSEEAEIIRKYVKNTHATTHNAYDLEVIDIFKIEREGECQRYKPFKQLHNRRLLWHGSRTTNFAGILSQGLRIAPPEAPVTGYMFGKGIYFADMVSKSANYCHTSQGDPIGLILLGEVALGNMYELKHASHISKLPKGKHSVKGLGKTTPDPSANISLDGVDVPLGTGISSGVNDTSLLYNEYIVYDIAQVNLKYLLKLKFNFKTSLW

| Structure (SMILES) | IC50 [nM] |
| --- | --- |
| CCN1C(=O)Nc2c(F)c(CN3CC(Oc4ccc(C(=O)NC)nc4)C3)cc3ncnc1c23 [Example 1, 5-((1-((3-Ethyl-9-fluoro-2-oxo-2,3-dihydro-1H-pyrimido[4,5,6-de]quinazolin-8-yl)methyl)azetidin-3-yl)oxy)-N-methylpicolinamide] | ≤ 10 |
| CCN1C(=O)Nc2c(F)c(CN3C[C@H](Oc4ccc(C(=O)NC)nc4)[C@H]3C)cc3ncnc1c23 [Example 2, 5-(((2R,3S)-1-((3-ethyl-9-fluoro-2-oxo-2,3-dihydro-1H-pyrimido[4,5,6-de]quinazolin-8-yl)methyl)-2-methylazetidin-3-yl)oxy)-N-methylpicolinamide] | ≤ 10 |
| CCN1C(=O)Nc2cc(CN3CC(Oc4ccc(C(=O)NC)nc4)C3)cc3ncnc1c23 [Example 3, 5-((1-((3-Ethyl-2-oxo-2,3-dihydro-1H-pyrimido[4,5,6-de]quinazolin-8-yl)methyl)azetidin-3-yl)oxy)-N-methylpicolinamide] | ≤ 10 |
| CCN1C(=O)Nc2c(F)c(CN3CC(Oc4ccc(C(=O)NC5CC5)nc4)C3)cc3ncnc1c23 [Example 7, N-cyclopropyl-5-((1-((3-ethyl-9-fluoro-2-oxo-2,3-dihydro-1H-pyrimido[4,5,6-de]quinazolin-8-yl)methyl)azetidin-3-yl)oxy)picolinamide] | ≤ 10 |
| CCN1C(=O)Nc2c(F)c(CN3C[C@H](Oc4ccc(C(=O)NC5CC5)nc4)[C@H]3C)cc3ncnc1c23 [Example 8, N-cyclopropyl-5-(((2R,3S)-1-((3-ethyl-9-fluoro-2-oxo-2,3-dihydro-1H-pyrimido[4,5,6-de]quinazolin-8-yl)methyl)-2-methylazetidin-3-yl)oxy)picolinamide] | ≤ 10 |
| CCN1C(=O)Nc2cc(CN3CC(Oc4ccc(C(=O)NC)nc4C)C3)cc3ncnc1c23 [Example 9, 5-((1-((3-Ethyl-2-oxo-2,3-dihydro-1H-pyrimido[4,5,6-de]quinazolin-8-yl)methyl)azetidin-3-yl)oxy)-N,6-dimethylpicolinamide] | ≤ 10 |
| CCN1C(=O)Nc2cc(CN3C[C@H](Oc4ccc(C(=O)NC)nc4C)[C@H]3C)cc3ncnc1c23 [Example 10, 5-(((2R,3S)-1-((3-ethyl-2-oxo-2,3-dihydro-1H-pyrimido[4,5,6-de]quinazolin-8-yl)methyl)-2-methylazetidin-3-yl)oxy)-N,6-dimethylpicolinamide] | ≤ 10 |

Next, values leading:

| IC50 [nM] | Structure (SMILES) |
| --- | --- |
| ≤ 10 | CCN1C(=O)Nc2cc(CN3C[C@H](Oc4ccc(C(=O)NC)nc4)[C@H]3C)cc3ncnc1c23 [Example 4, 5-(((2R,3S)-1-((3-ethyl-2-oxo-2,3-dihydro-1H-pyrimido[4,5,6-de]quinazolin-8-yl)methyl)-2-methylazetidin-3-yl)oxy)-N-methylpicolinamide] |
| ≤ 10 | CCN1C(=O)Nc2cc(CN3CC(Oc4ccc(C(=O)NC5CC5)nc4)C3)cc3ncnc1c23 [Example 5, N-cyclopropyl-5-((1-((3-ethyl-2-oxo-2,3-dihydro-1H-pyrimido[4,5,6-de]quinazolin-8-yl)methyl)azetidin-3-yl)oxy)picolinamide] |
| ≤ 10 | CCN1C(=O)Nc2cc(CN3C[C@H](Oc4ccc(C(=O)NC5CC5)nc4)[C@H]3C)cc3ncnc1c23 [Example 6, N-cyclopropyl-5-(((2R,3S)-1-((3-ethyl-2-oxo-2,3-dihydro-1H-pyrimido[4,5,6-de]quinazolin-8-yl)methyl)-2-methylazetidin-3-yl)oxy)picolinamide] |
